Source: ChEMBL document CHEMBL4425167, “Screening Identifies Thimerosal as a Selective Inhibitor of Endoplasmic Reticulum Aminopeptidase 1” (ACS Med Chem Lett, 2016)
Active and inactive are the calls of the source. The rule behind the calls is not given here.

Legend:
BMDC [1] = assay: Inhibition of ovalbumin cross presentation to OT-I Rag1-/-mouse CD8+ T cells in C57Bl/6 JRj mouse ERAP+/+ BMDC assessed as increase in IL-2 secretion from CD8+ T cells at 0.01 to 10 uM preincubated for 90 mins followed by 3 to 18 hrs incubation in presence of ovalbumin by sandwich ELISA method; format: functional, cell-based
BMDC [2] = assay: Inhibition of ovalbumin cross presentation to OT-I Rag1-/-mouse CD8+ T cells in C57Bl/6 JRj mouse ERAP-/- BMDC assessed as increase in IL-2 secretion from CD8+ T cells at 0.01 to 10 uM preincubated for 90 mins followed by 3 to 18 hrs incubation in presence of ovalbumin by sandwich ELISA method; format: functional, cell-based
[3] = target: T1, Endoplasmic reticulum aminopeptidase 1 (Homo sapiens, UniProt Q9NZ08); assay: Inhibition of recombinant ERAP1 (unknown origin) expressed in baculovirus infected Hi5 cells using L-leucine 7-amido-4-methyl coumarin as substrate up to 30 uM by fluorescence microplate reader method
[4] = target: T1, Endoplasmic reticulum aminopeptidase 1; assay: Inhibition of human ERAP1 expressed in African green monkey COS7 cells using aminoacyl-4-methylcoumaryl-7-amide as substrate after 15 mins by spectrofluorophotometric method

T1 sequence (Q9NZ08 whole entry): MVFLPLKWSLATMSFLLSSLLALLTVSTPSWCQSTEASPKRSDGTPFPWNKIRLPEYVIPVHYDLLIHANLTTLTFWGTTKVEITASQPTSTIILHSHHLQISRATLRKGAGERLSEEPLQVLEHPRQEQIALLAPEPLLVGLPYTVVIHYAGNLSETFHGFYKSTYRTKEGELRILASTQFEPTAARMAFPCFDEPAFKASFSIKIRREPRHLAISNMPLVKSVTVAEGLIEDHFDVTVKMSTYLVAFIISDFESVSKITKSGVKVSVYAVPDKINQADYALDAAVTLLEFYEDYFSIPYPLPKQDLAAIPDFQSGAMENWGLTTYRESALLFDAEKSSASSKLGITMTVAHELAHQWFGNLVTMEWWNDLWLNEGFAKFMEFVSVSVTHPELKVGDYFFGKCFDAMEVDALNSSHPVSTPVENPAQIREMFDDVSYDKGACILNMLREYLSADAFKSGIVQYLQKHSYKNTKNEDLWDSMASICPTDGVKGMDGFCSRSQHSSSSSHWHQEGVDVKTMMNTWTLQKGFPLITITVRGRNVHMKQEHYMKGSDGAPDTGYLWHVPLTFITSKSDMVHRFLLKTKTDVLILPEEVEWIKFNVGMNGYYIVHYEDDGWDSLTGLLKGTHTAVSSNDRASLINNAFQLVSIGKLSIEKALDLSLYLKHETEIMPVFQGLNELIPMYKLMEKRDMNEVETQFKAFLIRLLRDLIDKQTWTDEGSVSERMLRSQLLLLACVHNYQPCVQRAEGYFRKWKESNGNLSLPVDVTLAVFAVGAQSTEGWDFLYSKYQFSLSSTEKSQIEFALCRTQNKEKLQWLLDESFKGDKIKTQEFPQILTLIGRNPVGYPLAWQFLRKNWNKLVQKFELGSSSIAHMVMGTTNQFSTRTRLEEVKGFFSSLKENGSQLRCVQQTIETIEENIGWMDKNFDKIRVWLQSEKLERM

SMILES | inhibition (BMDC [1]) | inhibition (BMDC [2]) | inhibition [3] | IC50 [4] [µM]
O=C(O)c1ccccc1S | inactive | inactive | inactive | –
CC(C)C[C@H](NC(=O)[C@@H](O)[C@H](N)Cc1ccccc1)C(=O)O [UBENIMEX] | – | – | – | 50 to 100
